From US9045506B2, “Diphosphonate compound and a method for preparing the same and an application of the same” (Chengdu Yunke Pharmaceutical Co., Ltd., priority 2010, dated 2015)
Marks after values point to notes of the source that are not given here.

What was measured:
osteoclasts [1] = experiment: Osteoclastic absorption, resorption pit size on bone slices; assay type: cell-based, Japanese White Rabbit; settings: for formation and size of resorption pit of the osteoclast: 5 days' culture, n = 6, x ± s
Procedure: (§1) The osteoclasts is cultured using a modified Chambers method, the new-born Japanese White Rabbit (1 week-age, provided by Experimental Animal Center of West China Medical Center of Sichuan University) is sacrificed by neck dislocation, and dipped in 75% ethanol for 5 min, long bones are taken out under sterile condition, and soft tissue, periosteum as well as osteoepiphysis on the bone surface are removed in D-Hanks balanced salt solution, clean the bone shaft with α-MEM 2 times, and then cut off the long bone longitudinally in α-MEM full media (containing 15% fetal calf serum, penicillin 100 U/mL, streptomycin […], 25 m MHEPES, pH 7.0-7.2), scrape the medullar cavity of the bone gently until it is clean, and use a pipette (5 mL syringe, 25 G syringe needle) to rinse the medullar cavity repeatedly with culture media, and then the rinse solution is collected and filtered with cell strainer to remove bone fragment, and centrifuged at 1000 rpm for 5 min, the precipitate is suspended by 10 mL α-MEM, a hematocytometer is used for cell counting, the cell density in suspension is adjusted to 1×10^7/mL, and inoculate the cells in 6-well plates, and co-cultured with glass slide or bone slice, after 60 min the culture media was replaced with α-MEM induction culture media (containing 15% fetal bovine serum, 10 nM 1, 25-(OH)2VitD3, penicillin 100 U/mL, streptomycin 100 μg/mL, 25 mM HEPES, pH 7.0-7.2), the culture media is replaced every 3 days.

osteoclasts [2] = experiment: Osteoclast cell formation, counting of TRAP staining positive cells; assay type: cell-based, Japanese White Rabbit; settings: for OC cell formation, TRAP staining positive cells counted: n = 6, x ± s
Procedure: as §1
Each group of osteoclasts is performed with tartrate-resistant acid phosphatase (TRAP) staining, observed in optical microscope, and the TRAP staining positive cells are counted.

osteoblasts = experiment: Calcium deposition assay (alizarin red method); assay type: cell-based; settings: for ARS concentration / calcium nodule size: 5 d, n = 4, x ± s; for calcium deposition of osteoblasts (in words): lower / low concentration
Procedure: Next, each well is added with 1 mL extract (extract preparation: 800 mL 10% acetic acid with 200 mL anhydrous ethyl alcohol), and extracted for 30 min-45 min, kept in dark, shaken slightly, the absorbance of 450 nm wavelength is measured and recorded. […] As alizarin red S and calcium are linear correlated, the calcium deposition is evaluated according to the alizarin red S concentration.

osteoblasts MG63 = experiment: Osteoblast proliferation, MTT method; assay type: cell-based; settings: for Cell proliferation (MTT method), absorbance value under 490 nm: MG63, n = 4, x ± s; for effect on MG63 cell proliferation (in words): cocultured 72 h, P<0.05 vs control groups
Procedure: MTT method is used to evaluate the effects of the drug on the activity of proliferation of osteoblasts MG63, wherein each well of 96-well plate is added with fresh MTT (5 mg/mL) 100 μL, incubated under 37° C. for 4 h, and vibrated every a period of time, then the supernatant is removed, and each well is added with 200 μL DMSO (DMSO, Sigma corp.), and vibrated on micro-oscillator for 10 min, and equivalent amount of liquid is transferred to an new plate, and the absorbance value under 490 nm is measured, referring to table 1.

[3] = relative to Etidronate; cited from earlier work

## 4-(3-carbonylcyclohexano[d][1,2]selenazole-2(3H))-benzyl-1-hydroxyl-methylenediphosphonic acid [SC-8]
Osteoclasts [1]; 10^−5 mol/L
  formation and size of resorption pit of the osteoclast: 12.23 ± 3.06
Osteoclasts [1]; 10^−7 mol/L
  formation and size of resorption pit of the osteoclast: 64.45 ± 8.77
Osteoclasts [1]; 10^−9 mol/L
  formation and size of resorption pit of the osteoclast: 118.25 ± 14.73
Osteoclasts [2]; 10^−5 mol/L, 3 d
  OC cell formation, TRAP staining positive cells counted: 6 ± 2
Osteoclasts [2]; 10^−5 mol/L, 5 d
  OC cell formation, TRAP staining positive cells counted: 9 ± 2
Osteoclasts [2]; 10^−7 mol/L, 3 d
  OC cell formation, TRAP staining positive cells counted: 10 ± 2
Osteoclasts [2]; 10^−7 mol/L, 5 d
  OC cell formation, TRAP staining positive cells counted: 15 ± 4
Osteoclasts [2]; 10^−9 mol/L, 3 d
  OC cell formation, TRAP staining positive cells counted: 12 ± 3
Osteoclasts [2]; 10^−9 mol/L, 5 d
  OC cell formation, TRAP staining positive cells counted: 21 ± 6
osteoblasts; 10^−5 mol/L
  ARS concentration: 309 ± 13 µg/mL
  calcium nodule size: 1.32 ± 0.11 mm^2
osteoblasts; 10^−7 mol/L
  ARS concentration: 354 ± 23 µg/mL
  calcium nodule size: 1.66 ± 0.16 mm^2
osteoblasts; 10^−9 mol/L
  ARS concentration: 395 ± 17 µg/mL
  calcium nodule size: 1.96 ± 0.19* mm^2
Osteoblasts MG63; 10^−5 mol/L, 24 h
  Cell proliferation (MTT method), absorbance value under 490 nm: 0.376 ± 0.009
Osteoblasts MG63; 10^−5 mol/L, 48 h
  Cell proliferation (MTT method), absorbance value under 490 nm: 0.412 ± 0.007
Osteoblasts MG63; 10^−5 mol/L, 72 h
  Cell proliferation (MTT method), absorbance value under 490 nm: 0.342 ± 0.008
Osteoblasts MG63; 10^−7 mol/L, 24 h
  Cell proliferation (MTT method), absorbance value under 490 nm: 0.373 ± 0.010
Osteoblasts MG63; 10^−7 mol/L, 48 h
  Cell proliferation (MTT method), absorbance value under 490 nm: 0.439 ± 0.012
Osteoblasts MG63; 10^−7 mol/L, 72 h
  Cell proliferation (MTT method), absorbance value under 490 nm: 0.709 ± 0.010
Osteoblasts MG63; 10^−9 mol/L, 24 h
  Cell proliferation (MTT method), absorbance value under 490 nm: 0.355 ± 0.009
Osteoblasts MG63; 10^−9 mol/L, 48 h
  Cell proliferation (MTT method), absorbance value under 490 nm: 0.421 ± 0.008
Osteoblasts MG63; 10^−9 mol/L, 72 h
  Cell proliferation (MTT method), absorbance value under 490 nm: 0.773 ± 0.013
Osteoblasts MG63; 10^−9 mol/L
  effect on MG63 cell proliferation (in words): enhance MG63 cell proliferation

## NCCCC(O)(P(=O)(O)O)P(=O)(O)O [Alen, alendronate sodium, reference compound]
Osteoclasts [1]; p<0.01
  resorption pits size compared with blank (in words): decrease obviously
Osteoclasts [2]; all concentrations
  formation of osteoclasts compared with blank (in words): can inhibit the formation of osteoclasts
osteoblasts
  calcium deposition of osteoblasts (in words): not found that Alen group of low concentration can enhance the calcium deposition of osteoblasts
Osteoblasts MG63; 10^−5, 10^−7 mol/L for 72 h, P<0.01 vs control groups
  cell proliferation activity (in words): cell proliferation activity is inhibited in different degrees
Osteoblasts MG63; range of concentrations, within 48 h
  influence on proliferation of MG63 cells (in words): no influence on proliferation of MG63 cells

## O=c1c2ccccc2[se]n1-c1ccc(CC(P(=O)(O)O)P(=O)(O)O)cc1 [SC-1, 4-(3-carbonylbenzo[d][1,2]selenazole-2(3H))-benzyl-methylene diphosphonic acid]
osteoblasts
  calcium deposition of osteoblasts (in words): increases the calcium deposition of osteoblasts obviously
Osteoblasts MG63; 10^−9 mol/L
  effect on MG63 cell proliferation (in words): enhance MG63 cell proliferation

## O=c1c2ccccc2[se]n1-c1ccc(CC(O)(P(=O)(O)O)P(=O)(O)O)cc1 [SC-2, 4-(3-carbonylbenzo[d][1,2]selenazole-2(3H))-benzyl-methylene-1-hydroxyl-methylene diphosphonic acid]
osteoblasts
  calcium deposition of osteoblasts (in words): increases the calcium deposition of osteoblasts obviously
Osteoblasts MG63; 10^−9 mol/L
  effect on MG63 cell proliferation (in words): enhance MG63 cell proliferation

## O=c1c2cc(Cl)ccc2[se]n1-c1ccc(CC(P(=O)(O)O)P(=O)(O)O)cc1 [SC-9, 4-(3-carbonyl-5-chlorobenzo[d][1,2]selenazole-2(3H))-benzyl-methylene diphosphonic acid]
osteoblasts
  calcium deposition of osteoblasts (in words): increases the calcium deposition of osteoblasts obviously

## O=c1c2cc(Cl)ccc2[se]n1-c1ccc(CC(O)(P(=O)(O)O)P(=O)(O)O)cc1 [SC-10, 4-(3-carbonyl-5-chlorobenzo[d][1,2]selenazole-2(3H))-benzyl-1-hydroxyl-methylene diphosphonic acid]
osteoblasts
  calcium deposition of osteoblasts (in words): increases the calcium deposition of osteoblasts obviously

## O=c1c2ccccc2[se]n1Cc1ccc(CC(P(=O)(O)O)P(=O)(O)O)cc1 [SC-11, 4-(2-methylbenzo[d][1,2]selenazole-3 (2H)-ketone)-benzyl-methylene diphosphonic acid]
osteoblasts
  calcium deposition of osteoblasts (in words): increases the calcium deposition of osteoblasts obviously

## O=c1c2ccccc2[se]n1Cc1ccc(CC(O)(P(=O)(O)O)P(=O)(O)O)cc1 [SC-12, 4-(2-methylbenzo[d][1,2]selenazole-3 (2H)-ketone)-benzyl-1-hydroxyl-methylene diphosphonic acid]
osteoblasts
  calcium deposition of osteoblasts (in words): increases the calcium deposition of osteoblasts obviously

## O=c1c2ccccc2[se]n1-c1ccc(CCC(P(=O)(O)O)P(=O)(O)O)cc1 [SC-13, 4-(3-carbonylbenzo[d][1,2]selenazole-2(3H))-phenylethyl-methylenediphosphonic acid]
osteoblasts
  calcium deposition of osteoblasts (in words): increases the calcium deposition of osteoblasts obviously

## O=c1c2ccccc2[se]n1-c1ccc(CCC(O)(P(=O)(O)O)P(=O)(O)O)cc1 [SC-14, 4-(3-carbonylbenzo[d][1,2]selenazole-2(3H))-phenylethyl-1-hydroxyl-methylene diphosphonic acid]
osteoblasts
  calcium deposition of osteoblasts (in words): increases the calcium deposition of osteoblasts obviously

## O=c1c2ccccc2sn1-c1ccc(CC(P(=O)(O)O)P(=O)(O)O)cc1 [SC-15, 4-(3-carbonylbenzo[d][1,2]sulfonazole-2(3H))-benzyl-methylene diphosphonic acid]
osteoblasts
  calcium deposition of osteoblasts (in words): increases the calcium deposition of osteoblasts obviously

## O=P(O)(O)C(O)(Cn1ccnc1)P(=O)(O)O [Zoledronate]
[3]
  bone affinity, times stronger than Etidronate: over 10000 times
